Reference: patent US7786141B2 (Vertex Pharmaceuticals Incorporated, priority 2004, dated 2010)
Where two headings read alike, the source gives them in different places.

Tests used:
M4 muscarinic receptor = target: T1, M4 muscarinic receptor (Homo sapiens, UniProt P08173); assay: Functional mobilization of intracellular calcium (FLIPR) in M4-CHO cells; type: cell-based
T1 construct: expressed in transfected cells; host or cells: CHO (M4-CHO)
T1 sequence (P08173 1-479): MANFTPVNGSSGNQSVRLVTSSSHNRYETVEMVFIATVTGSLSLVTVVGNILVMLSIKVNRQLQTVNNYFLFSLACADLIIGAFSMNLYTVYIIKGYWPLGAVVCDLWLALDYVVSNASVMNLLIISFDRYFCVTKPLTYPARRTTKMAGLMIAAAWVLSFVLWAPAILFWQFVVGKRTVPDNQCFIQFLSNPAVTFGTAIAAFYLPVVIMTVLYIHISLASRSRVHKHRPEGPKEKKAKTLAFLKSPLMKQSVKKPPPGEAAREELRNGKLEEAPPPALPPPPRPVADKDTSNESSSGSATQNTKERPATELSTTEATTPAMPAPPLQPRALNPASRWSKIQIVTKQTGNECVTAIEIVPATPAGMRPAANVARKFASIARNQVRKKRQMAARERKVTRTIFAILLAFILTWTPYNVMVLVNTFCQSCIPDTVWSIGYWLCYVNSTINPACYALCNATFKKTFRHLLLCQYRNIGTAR
How it was run: (§1)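 CHO cells stably expressing human M1 or M4 receptor were loaded with Fluo-3 AM (or Calcium 3 dye) in Hepes-buffered saline, pH 7.4, with 1 mM probenecid, 0.5% final DMSO. Agonist mode: compound added directly; antagonist mode: 15 min preincubation before carbachol at EC80. FLIPR fluorescence recorded 60 sec.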

M1 muscarinic receptor = target: T2, M1 muscarinic receptor (Homo sapiens, UniProt P11229); assay: Functional mobilization of intracellular calcium (FLIPR) in M1-CHO cells; type: cell-based
T2 construct: expressed in transfected cells; host or cells: CHO (M1-CHO)
T2 sequence (P11229 1-460): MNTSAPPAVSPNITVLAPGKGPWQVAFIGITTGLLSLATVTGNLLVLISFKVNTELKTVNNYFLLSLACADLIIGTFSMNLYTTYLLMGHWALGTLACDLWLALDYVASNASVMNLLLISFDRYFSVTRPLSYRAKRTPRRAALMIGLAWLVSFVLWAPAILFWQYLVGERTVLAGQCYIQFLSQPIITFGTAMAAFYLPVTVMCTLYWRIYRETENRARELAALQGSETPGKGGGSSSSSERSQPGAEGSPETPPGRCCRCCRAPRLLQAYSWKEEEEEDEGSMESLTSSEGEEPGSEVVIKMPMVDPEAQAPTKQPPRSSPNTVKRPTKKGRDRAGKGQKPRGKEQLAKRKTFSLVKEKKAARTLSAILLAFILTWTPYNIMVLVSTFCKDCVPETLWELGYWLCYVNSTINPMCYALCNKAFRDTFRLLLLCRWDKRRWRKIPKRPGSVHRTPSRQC
How it was run: as §1

[1] = M4 receptor, calcium mobilization
[2] = M4 receptor, calcium mobilization, read-out: M4 Efficacy
[3] = M1 receptor, calcium mobilization
[4] = M1 receptor, calcium mobilization, read-out: M1 Efficacy
[5] = Table 4, 100% efficacy is the maximum response obtained with the Carbachol control
[6] = Table 4, M4 receptor, calcium mobilization (FLIPR)
[7] = Table 4, M1 receptor, calcium mobilization (FLIPR)
[8] = Table 4, modulating M4 receptor
[9] = Table 4, modulating M1 receptor
[10] = M4-CHO cells, calcium mobilization (FLIPR)
[11] = M4-CHO cells, calcium mobilization (FLIPR), read-out: M4 Efficacy
[12] = M1-CHO cells, calcium mobilization (FLIPR)
[13] = M1-CHO cells, calcium mobilization (FLIPR), read-out: M1 Efficacy
[14] = 100% efficacy is the maximum response obtained with the Carbachol control, Table 5

| SMILES | M4 Activity (M4 muscarinic receptor; [1]) | Emax (M4 muscarinic receptor; [2]) | M1 Activity (M1 muscarinic receptor; [3]) | Emax (M1 muscarinic receptor; [4]) | Emax (M4 muscarinic receptor; [5]) | Emax (M1 muscarinic receptor; [5]) | also measured |
| --- | --- | --- | --- | --- | --- | --- | --- |
| CC(=O)NC1CC2(CCN(CC3CC4C=CC3C4)CC2)c2ccccc21 (stereo not shown) [compound 180] | xxx (activity was measured to be less than 0.1 μM) | 65 to 85% | xxx (activity was measured to be less than 0.1 μM) | 65 to 85% | – | – | – |
| COCCOC(=O)N1C2CCC1CC(N1CCC3(CC1)CN(C(C)=O)c1ccc(F)cc13)C2 (stereo not shown) [compound 76] | xx (activity was measured to be between 0.1 μM and 1.0 μM) | 65 to 85% | xxx (activity was measured to be less than 0.1 μM) | 65 to 85% | – | – | – |
| CC(=O)NC1CCC2(CCN(CCC3CCN(C(C)=O)CC3)CC2)c2ccccc21 (stereo not shown) [compound 833] | – | – | – | – | 25 to 100% | 25 to 100% | M4 Activity (M4 muscarinic receptor; [6]): xxx (activity was measured to be less than 2.0 μM); M1 Activity (M1 muscarinic receptor; [7]): xxx (activity was measured to be less than 2.0 μM) |
| CCCC#CCOC(=O)N1C2CCC1CC(N1CCC3(CC1)CN(C(C)=O)c1ccccc13)C2 (stereo not shown) [compound 820] | – | – | – | – | 25 to 100% | 25 to 100% | M4 Activity (M4 muscarinic receptor; [6]): xxx (activity was measured to be less than 2.0 μM); M1 Activity (M1 muscarinic receptor; [7]): xxx (activity was measured to be less than 2.0 μM) |
| CCCOC(=O)N1CCC(CN2CCC3(CC2)CN(C(C)=O)c2ccc(F)cc23)CC1 [compound 98] | xx (activity was measured to be between 0.1 μM and 1.0 μM) | < 65% | xxx (activity was measured to be less than 0.1 μM) | 65 to 85% | – | – | – |
| CCOC(=O)N1CCC(N2CCC3(CCCc4ccccc43)CC2)CC1 [compound 591] | – | – | – | – | 25 to 100% | > 100% | M4 Activity (M4 muscarinic receptor; [8]): xxx (activity was measured to be less than 2.0 μM); M1 Activity (M1 muscarinic receptor; [9]): xxx (activity was measured to be less than 2.0 μM) |
| CCOC(=O)N1CCC(N2CCC3(CC2)CN(c2cncnc2)c2ccccc23)CC1 [compound 905] | – | – | – | – | 25 to 100% | 25 to 100% | M4 Activity (M4 muscarinic receptor; [6]): xxx (activity was measured to be less than 2.0 μM); M1 Activity (M1 muscarinic receptor; [7]): xxx (activity was measured to be less than 2.0 μM) |
| CCOC(=O)N1CCC(N2CCC3(CC2)CN(C(=O)OCC(C)C)c2ccc(F)cc23)CC1 [compound 30] | xxx (activity was measured to be less than 0.1 μM) | > 85% | xxx (activity was measured to be less than 0.1 μM) | > 85% | – | – | – |
| c1ccc2c(c1)NCC21CCN(C2CC3CCC(C3)C2)CC1 (stereo not shown) [compound 420] | – | – | – | – | – | – | EC50 (M4 muscarinic receptor; [10]): > 1000 nM; Emax (M4 muscarinic receptor; [11]): < 65%; EC50 (M1 muscarinic receptor; [12]): 100 to 1000 nM; Emax (M1 muscarinic receptor; [13]): < 65% |
| COCCN1CC2(CCN(C3CCCCC3)CC2)c2cc(F)ccc21 [compound 925] | – | – | – | – | 25 to 100% | 25 to 100% | M4 Activity (M4 muscarinic receptor; [6]): xxx (activity was measured to be less than 2.0 μM); M1 Activity (M1 muscarinic receptor; [7]): xxx (activity was measured to be less than 2.0 μM) |
| O=C(OC1CCCC1)N1C2CCC1CC(N1CCC3(CC1)COc1ccc(F)cc13)C2 (stereo not shown) [compound 133] | xx (activity was measured to be between 0.1 μM and 1.0 μM) | 65 to 85% | xxx (activity was measured to be less than 0.1 μM) | > 85% | – | – | – |
| CCC(C)C(=O)N1C2CCC1CC(N1CCC3(CC1)CN(C(C)=O)c1ccccc13)C2 (stereo not shown) [compound 743] | – | – | – | – | < 25% | < 25% | M4 Activity (M4 muscarinic receptor; [8]): x (activity was measured to be greater than 5.0 μM); M1 Activity (M1 muscarinic receptor; [9]): x (activity was measured to be greater than 5.0 μM) |
| O=C(O)C1CC2(CCN(CC3CCCCC3)CC2)c2ccccc21 (stereo not shown) [compound 803] | – | – | – | – | < 25% | < 25% | M4 Activity (M4 muscarinic receptor; [6]): x (activity was measured to be greater than 5.0 μM); M1 Activity (M1 muscarinic receptor; [7]): x (activity was measured to be greater than 5.0 μM) |
| CCOC(=O)N1CCC(N2CCC3(CC2)CN(C(C)=O)c2ccc(S(C)(=O)=O)cc23)CC1 [compound 719] | – | – | – | – | < 25% | 25 to 100% | M4 Activity (M4 muscarinic receptor; [8]): x (activity was measured to be greater than 5.0 μM); M1 Activity (M1 muscarinic receptor; [9]): xxx (activity was measured to be less than 2.0 μM) |
| c1ccc2c(c1)NCC21CCN(C2CC3CCC2C3)CC1 (stereo not shown) [compound 272] | xxx (activity was measured to be less than 0.1 μM) | > 85% | xxx (activity was measured to be less than 0.1 μM) | 65 to 85% | – | – | – |
| O=C1CCCN1[C@H]1CCC2(CCN([C@H]3CC4CC[C@H](C4)C3)CC2)c2ccccc21 [compound 854] | – | – | – | – | 25 to 100% | 25 to 100% | M4 Activity (M4 muscarinic receptor; [6]): xxx (activity was measured to be less than 2.0 μM); M1 Activity (M1 muscarinic receptor; [7]): xxx (activity was measured to be less than 2.0 μM) |
| CCOC(=O)N1C2CCC1CC(N1CCC3(CC1)CC(NC(C)=O)c1ccccc13)C2 (stereo not shown) [compound 318] | xxx (activity was measured to be less than 0.1 μM) | > 85% | xxx (activity was measured to be less than 0.1 μM) | 65 to 85% | – | – | – |
| CCOC(=O)N1C2CCC1CC(N1CCC3(CC1)C[C@H](NC(C)=O)c1ccccc13)C2 (stereo partly shown) [compound 359] | xx (activity was measured to be between 0.1 μM and 1.0 μM) | < 65% | xx (activity was measured to be between 0.1 μM and 1.0 μM) | < 65% | – | – | – |
| COCCOC(=O)N1CCC(CN2CCC3(CC2)CN(C(C)=O)c2ccc(C)cc23)CC1 [compound 419] | – | – | – | – | – | – | EC50 (M4 muscarinic receptor; [10]): > 1000 nM; Emax (M4 muscarinic receptor; [11]): < 65%; EC50 (M1 muscarinic receptor; [12]): > 1000 nM; Emax (M1 muscarinic receptor; [13]): < 65% |
| CC(=O)N1CC2(CCN(CC3=CCC4C[C@@H]3C4(C)C)CC2)c2cc(F)ccc21 [compound 845] | – | – | – | – | < 25% | < 25% | M4 Activity (M4 muscarinic receptor; [6]): x (activity was measured to be greater than 5.0 μM); M1 Activity (M1 muscarinic receptor; [7]): x (activity was measured to be greater than 5.0 μM) |
| CCCOC(=O)N1CC[C@H](CN2CCC3(CC2)CN(C(=O)N(C)C)c2ccc(F)cc23)C1 [compound 510] | – | – | – | – | 25 to 100% | 25 to 100% | M4 Activity (M4 muscarinic receptor; [8]): xxx (activity was measured to be less than 2.0 μM); M1 Activity (M1 muscarinic receptor; [9]): xxx (activity was measured to be less than 2.0 μM) |
| CC(=O)N[C@H]1CCC2(CCN(CC3CC3)CC2)c2ccccc21 [compound 514] | – | – | – | – | 25 to 100% | 25 to 100% | M4 Activity (M4 muscarinic receptor; [8]): x (activity was measured to be greater than 5.0 μM); M1 Activity (M1 muscarinic receptor; [9]): xx (activity was measured to be between 2.0 μM and 5.0 μM) |
| CCCN1CC2(CCN(C3CCN(C(=O)OCC)CC3)CC2)c2cc(F)ccc21 [compound 469] | – | – | – | – | 25 to 100% | 25 to 100% | M4 Activity (M4 muscarinic receptor; [8]): xxx (activity was measured to be less than 2.0 μM); M1 Activity (M1 muscarinic receptor; [9]): xxx (activity was measured to be less than 2.0 μM) |
| CC(=O)NC1CCC2(CCN(CCC3CCCN(S(C)(=O)=O)C3)CC2)c2ccccc21 (stereo not shown) [compound 541] | – | – | – | – | < 25% | 25 to 100% | M4 Activity (M4 muscarinic receptor; [8]): x (activity was measured to be greater than 5.0 μM); M1 Activity (M1 muscarinic receptor; [9]): xxx (activity was measured to be less than 2.0 μM) |
| COc1cccc(N2CCC(N3CCC4(CC3)CN(C(=O)N(C)C)c3ccc(F)cc34)CC2)c1 [compound 1028] | – | – | – | – | – | – | Emax (M4 muscarinic receptor; [14]): 25 to 100%; EC50 (M4 muscarinic receptor; CHO cells expressing M4, calcium mobilization, Table 5): < 2000 nM; Emax (M1 muscarinic receptor; [14]): 25 to 100%; EC50 (M1 muscarinic receptor; CHO cells expressing M1, calcium mobilization, Table 5): 2000 to 10000 nM |
| O=C1CC2(CCN(CC3CC4C=CC3C4)CC2)c2ccc(Cl)cc21 (stereo not shown) [compound 915] | – | – | – | – | 25 to 100% | 25 to 100% | M4 Activity (M4 muscarinic receptor; [6]): x (activity was measured to be greater than 5.0 μM); M1 Activity (M1 muscarinic receptor; [7]): x (activity was measured to be greater than 5.0 μM) |
| CC(=O)N[C@H]1CC2(CCN(CC3CCCCC3)CC2)c2ccccc21 [compound 184] | x (activity was measured to be greater than 1.0 μM) | 65 to 85% | xx (activity was measured to be between 0.1 μM and 1.0 μM) | > 85% | – | – | – |
| CC(=O)NC1CC2(CCN(C3CC4CCC(C4)C3)CC2)c2ccccc21 (stereo not shown) [compound 8] | xx (activity was measured to be between 0.1 μM and 1.0 μM) | 65 to 85% | xx (activity was measured to be between 0.1 μM and 1.0 μM) | < 65% | – | – | – |
